Test results from the NIST ThermoML archive (doi:10.1016/j.jct.2009.02.008).
Several values for one entry are separate records, joined by “and”; a condition that tells them apart may be missing. Equal values may be shown once.

What was measured:
[1] = Molar enthalpy of transition or fusion; settings: Crystal; DSC
[2] = for vapor or sublimation pressure: Torsion effusion method; for Normal melting temperature: DTA

O=C(O)c1ccc([N+](=O)[O-])cc1[N+](=O)[O-] [2,4-dinitrobenzoic acid]
Settings	Molar enthalpy of transition or fusion [kcal/mol]
[1]	7.31

[2]
Settings	vapor or sublimation pressure
363.5 K, Crystal	3e-05 kPa
370 K, Crystal	6e-05 kPa
373 K, Crystal	9e-05 kPa
375 K, Crystal	0.000105 kPa
377 K, Crystal	0.00015 kPa
377.5 K, Crystal	0.00015 kPa
379 K, Crystal	0.000195 kPa
381 K, Crystal	0.00024 kPa
381.5 K, Crystal	0.00024 kPa
385 K, Crystal	0.00033 kPa
388.5 K, Crystal	0.000511 kPa and 0.000541 kPa
389 K, Crystal	0.00048 kPa and 0.000541 kPa
391 K, Crystal	0.000601 kPa and 0.000631 kPa and 0.000691 kPa
393 K, Crystal	0.000781 kPa
393.5 K, Crystal	0.000901 kPa
394 K, Crystal	0.000871 kPa
396.5 K, Crystal	0.001141 kPa
397 K, Crystal	0.001141 kPa
399 K, Crystal	0.001351 kPa and 0.001502 kPa
399.5 K, Crystal	0.001622 kPa
400 K, Crystal	0.001622 kPa
401.5 K, Crystal	0.001952 kPa
402 K, Crystal	0.001862 kPa
402.5 K, Crystal	0.001922 kPa
494.3 K, Liquid	0.85 kPa
494.4 K, Liquid	0.85 kPa
494.5 K, Liquid	0.851 kPa
494.7 K, Liquid	0.85 kPa
495.6 K, Liquid	0.874 kPa
495.7 K, Liquid	0.883 kPa
495.8 K, Liquid	0.879 kPa
495.9 K, Liquid	0.884 kPa
500.6 K, Liquid	1.05 kPa and 1.065 kPa
500.8 K, Liquid	1.051 kPa and 1.058 kPa
501.1 K, Liquid	1.047 kPa
501.2 K, Liquid	1.016 kPa and 1.046 kPa and 1.048 kPa
501.5 K, Liquid	1.06 kPa
502.4 K, Liquid	1.13 kPa
503.2 K, Liquid	1.259 kPa
504.4 K, Liquid	1.202 kPa
505.3 K, Liquid	1.309 kPa
506.2 K, Liquid	1.299 kPa
507.1 K, Liquid	1.451 kPa
507.2 K, Liquid	1.464 kPa
507.4 K, Liquid	1.458 kPa
507.5 K, Liquid	1.475 kPa
508.1 K, Liquid	1.511 kPa
508.2 K, Liquid	1.484 kPa and 1.513 kPa
508.3 K, Liquid	1.516 kPa
508.5 K, Liquid	1.513 kPa
510.3 K, Liquid	1.607 kPa
511.4 K, Liquid	1.647 kPa
511.5 K, Liquid	1.909 kPa
512.3 K, Liquid	1.785 kPa
512.8 K, Liquid	1.798 kPa and 1.814 kPa and 1.816 kPa
512.9 K, Liquid	1.849 kPa [middle of 4 runs]
513 K, Liquid	1.814 kPa
513.2 K, Liquid	1.704 kPa
514.4 K, Liquid	1.9 kPa
515.2 K, Liquid	1.995 kPa
516.4 K, Liquid	1.952 kPa
517.2 K, Liquid	2.293 kPa and 2.389 kPa and 2.212 kPa
517.3 K, Liquid	2.207 kPa and 2.212 kPa
518.4 K, Liquid	2.196 kPa
519.3 K, Liquid	2.153 kPa
520.2 K, Liquid	2.466 kPa
521.4 K, Liquid	2.522 kPa
522.3 K, Liquid	2.494 kPa
523 K, Liquid	2.741 kPa
523.1 K, Liquid	2.703 kPa and 2.754 kPa
523.2 K, Liquid	2.768 kPa
523.3 K, Liquid	2.731 kPa
524.3 K, Liquid	2.997 kPa
526.3 K, Liquid	3.049 kPa
527.2 K, Liquid	3.107 kPa
528.4 K, Liquid	3.467 kPa
528.9 K, Liquid	3.528 kPa and 3.623 kPa and 3.453 kPa
529 K, Liquid	3.447 kPa
529.2 K, Liquid	3.297 kPa
530.4 K, Liquid	3.895 kPa
531.2 K, Liquid	3.694 kPa
531.3 K, Liquid	3.86 kPa and 3.894 kPa
531.4 K, Liquid	3.865 kPa
531.5 K, Liquid	3.847 kPa
532.2 K, Liquid	3.786 kPa
533.4 K, Liquid	4.205 kPa
534.2 K, Liquid	4.308 kPa and 3.936 kPa and 4.141 kPa
534.4 K, Liquid	4.173 kPa and 4.085 kPa
535.4 K, Liquid	4.593 kPa
536.3 K, Liquid	4.615 kPa
537.3 K, Liquid	4.715 kPa and 4.48 kPa
537.4 K, Liquid	4.808 kPa and 4.815 kPa
537.5 K, Liquid	4.648 kPa
538.2 K, Liquid	4.909 kPa
539.2 K, Liquid	5.258 kPa and 5.485 kPa and 5.433 kPa
539.3 K, Liquid	5.693 kPa
539.4 K, Liquid	4.999 kPa
540.3 K, Liquid	5.053 kPa
541.2 K, Liquid	5.592 kPa
543.3 K, Liquid	5.789 kPa
544.2 K, Liquid	5.62 kPa

Settings	Normal melting temperature [°C]
[2], Crystal	182.7

O=C(O)c1ccc([N+](=O)[O-])c([N+](=O)[O-])c1 [3,4-dinitrobenzoic acid]
Settings	Molar enthalpy of transition or fusion [kcal/mol]
[1]	5.88

[2]
Settings	vapor or sublimation pressure
366 K, Crystal	6e-05 kPa
367 K, Crystal	7.5e-05 kPa
368 K, Crystal	7.5e-05 kPa
369 K, Crystal	9e-05 kPa
370 K, Crystal	0.000105 kPa
370.5 K, Crystal	0.000105 kPa
373 K, Crystal	0.00015 kPa
373.5 K, Crystal	0.00015 kPa
374 K, Crystal	0.00015 kPa
374.5 K, Crystal	0.00015 kPa
376 K, Crystal	0.00018 kPa
378 K, Crystal	0.00024 kPa
379 K, Crystal	0.00027 kPa
380 K, Crystal	0.00027 kPa
382 K, Crystal	0.00039 kPa and 0.00036 kPa
383 K, Crystal	0.00039 kPa
383.5 K, Crystal	0.00039 kPa
384.5 K, Crystal	0.00048 kPa
385 K, Crystal	0.000511 kPa
386.5 K, Crystal	0.000541 kPa
387 K, Crystal	0.000571 kPa
387.5 K, Crystal	0.000631 kPa
390.5 K, Crystal	0.000841 kPa
391.5 K, Crystal	0.000901 kPa
392 K, Crystal	0.000991 kPa
393 K, Crystal	0.001171 kPa
393.5 K, Crystal	0.001111 kPa
396 K, Crystal	0.001502 kPa and 0.001441 kPa
396.5 K, Crystal	0.001622 kPa
397 K, Crystal	0.001652 kPa
398.5 K, Crystal	0.001862 kPa
399.3 K, Crystal	0.001952 kPa
504.2 K, Liquid	1.398 kPa
506.3 K, Liquid	1.467 kPa and 1.527 kPa
508.1 K, Liquid	1.661 kPa
509.3 K, Liquid	1.686 kPa and 1.713 kPa
510.3 K, Liquid	1.855 kPa
511.2 K, Liquid	1.855 kPa
512.2 K, Liquid	2.062 kPa and 1.928 kPa
512.6 K, Liquid	2.021 kPa
513.3 K, Liquid	2.078 kPa
514 K, Liquid	2.144 kPa
514.2 K, Liquid	2.189 kPa
514.5 K, Liquid	2.164 kPa
515.2 K, Liquid	2.237 kPa
516.3 K, Liquid	2.326 kPa and 2.215 kPa
517.3 K, Liquid	2.424 kPa
517.4 K, Liquid	2.494 kPa
517.5 K, Liquid	2.396 kPa
518.2 K, Liquid	2.524 kPa and 2.484 kPa
518.3 K, Liquid	2.448 kPa
519.1 K, Liquid	2.585 kPa
519.3 K, Liquid	2.646 kPa
519.5 K, Liquid	2.554 kPa
520 K, Liquid	2.619 kPa
520.2 K, Liquid	2.672 kPa and 2.772 kPa and 2.726 kPa
521.2 K, Liquid	2.916 kPa
521.3 K, Liquid	2.807 kPa
521.7 K, Liquid	2.815 kPa
522.1 K, Liquid	2.909 kPa and 2.971 kPa
522.2 K, Liquid	2.978 kPa
523.1 K, Liquid	3.104 kPa
523.3 K, Liquid	3.095 kPa and 3.121 kPa
523.5 K, Liquid	3.122 kPa
524.1 K, Liquid	3.125 kPa
524.2 K, Liquid	3.059 kPa and 3.181 kPa
524.4 K, Liquid	3.199 kPa
525 K, Liquid	3.353 kPa
525.2 K, Liquid	3.39 kPa
525.5 K, Liquid	3.335 kPa
526 K, Liquid	3.494 kPa
526.3 K, Liquid	3.406 kPa and 3.328 kPa and 3.288 kPa
526.5 K, Liquid	3.316 kPa
527.1 K, Liquid	3.585 kPa
527.3 K, Liquid	3.551 kPa and 3.644 kPa
528.1 K, Liquid	3.726 kPa and 3.627 kPa
528.2 K, Liquid	3.635 kPa
528.3 K, Liquid	3.831 kPa
529.2 K, Liquid	3.887 kPa
529.4 K, Liquid	3.764 kPa
529.6 K, Liquid	3.879 kPa and 3.918 kPa
530.1 K, Liquid	3.984 kPa
530.3 K, Liquid	4.036 kPa and 4.045 kPa
531 K, Liquid	4.159 kPa
531.3 K, Liquid	4.262 kPa and 4.216 kPa
532.2 K, Liquid	4.348 kPa [middle of 4 runs]
533.2 K, Liquid	4.481 kPa
533.3 K, Liquid	4.576 kPa and 4.47 kPa
534.3 K, Liquid	4.611 kPa and 4.532 kPa
535.4 K, Liquid	4.812 kPa
535.7 K, Liquid	4.867 kPa
536.2 K, Liquid	4.889 kPa
536.5 K, Liquid	4.992 kPa
537.3 K, Liquid	5.217 kPa
538.3 K, Liquid	5.356 kPa
539.3 K, Liquid	5.685 kPa
540.6 K, Liquid	5.862 kPa

Settings	Normal melting temperature [°C]
[2], Crystal	165.1
